# Reference: article PMC2785468, “Androgen Receptor Mutations Associated with Androgen Insensitivity Syndrome: A High Content Analysis Approach Leading to Personalized Medicine” (PLoS ONE, 2009)
# Target: T1, AR-R840C (Homo sapiens, UniProt P10275, R841C)
# T1 construct: expressed in transfected cells
# T1 sequence (P10275 1-920 R841C): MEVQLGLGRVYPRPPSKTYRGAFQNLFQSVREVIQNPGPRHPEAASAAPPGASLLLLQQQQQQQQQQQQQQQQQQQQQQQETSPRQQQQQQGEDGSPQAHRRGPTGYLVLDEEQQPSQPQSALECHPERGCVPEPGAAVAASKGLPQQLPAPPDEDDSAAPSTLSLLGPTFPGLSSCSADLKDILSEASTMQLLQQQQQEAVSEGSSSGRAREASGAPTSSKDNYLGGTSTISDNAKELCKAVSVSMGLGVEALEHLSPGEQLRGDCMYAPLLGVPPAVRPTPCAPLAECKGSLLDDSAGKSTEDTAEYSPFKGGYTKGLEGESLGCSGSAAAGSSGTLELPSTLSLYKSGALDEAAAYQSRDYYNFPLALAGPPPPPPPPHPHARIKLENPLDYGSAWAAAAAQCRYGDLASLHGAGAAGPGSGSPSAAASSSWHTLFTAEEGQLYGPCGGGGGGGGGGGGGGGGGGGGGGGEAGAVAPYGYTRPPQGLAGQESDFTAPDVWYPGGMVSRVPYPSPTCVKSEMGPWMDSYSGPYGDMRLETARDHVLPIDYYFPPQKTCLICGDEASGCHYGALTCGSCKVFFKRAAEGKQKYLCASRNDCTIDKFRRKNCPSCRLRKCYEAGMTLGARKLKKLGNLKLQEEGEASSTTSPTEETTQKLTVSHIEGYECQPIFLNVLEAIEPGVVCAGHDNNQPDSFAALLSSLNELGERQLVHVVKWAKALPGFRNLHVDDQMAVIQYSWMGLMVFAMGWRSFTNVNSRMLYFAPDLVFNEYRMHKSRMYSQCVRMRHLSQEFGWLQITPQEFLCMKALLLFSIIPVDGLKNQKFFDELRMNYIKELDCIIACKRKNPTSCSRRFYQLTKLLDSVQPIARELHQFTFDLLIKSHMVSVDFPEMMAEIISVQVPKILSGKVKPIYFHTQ
# Assay type: cell-based
# Method: To determine the global effect of the various AIS mutations on AR signaling, each was analyzed using HCA. This technology allows simultaneous quantification of AR protein expression, nuclear translocation, subnuclear patterning, and transcriptional activity. The analysis was done in HeLa cell lines stably transfected with wild type or mutant ARs fused with green fluorescent protein, or using AR immunofluorescence in primary cultures of genital skin fibroblasts generated from foreskin biopsies of historical AIS patients, or of normal neonates undergoing circumcision at birth. To prevent the effects of receptor over-expression, stable HeLa cells were carefully selected to express AR levels similar to LNCaP as previously described. Prior to ligand treatment, HeLa cells were transfected with the pARR2PB-dsRED2skl reporter plasmid, consisting of the AR responsive promoter ARR2PB [31] driving expression of the red fluorescent protein reporter dsRED2skl engineered to target peroxisomes.
# For studies utilizing HeLa GFP-AR cell lines, twenty-four hours before transfection with pARR2PB-dsRED2skl, cells were plated onto 100 mm plastic dishes in medium supplemented with 5% charcoal-stripped and dialyzed-FBS. Transient introduction of the pARR-2PB-dsRED2skl reporter construct was performed using 6.0 µg reporter plasmid and 6.0 µg carrier DNA (BlueScript, Stratagene, San Diego, CA) using Transfectin (Biorad) following standard protocols. After 8-hour incubation, DNA/lipid complexes were removed. Cells were then trypsinized and replated at 10,000 cells per well in Nunc poly-D-lysine treated 96-well optical glass bottom plates and incubated an additional 12 hours to allow for cell adhesion. […] Compound dilutions and final addition to multi-well plates were performed using a Beckman Biomek NX robotic platform to ensure repeatability from experiment to experiment. After incubation was complete, using the Biomek NX robot, plates were washed with PBS and fixed for 20 min at RT in 4% formaldehyde prepared in CSK buffer (80 mM potassium PIPES, pH 6.8, 5 mM EGTA, 2 mM MgCl2). After fixation, cells were briefly permeabilized (5 min) with 0.5% Triton-X and prepared for imaging by washing in PBS, aspirating the washed solution, and adding a 1 ng/ml DAPI solution to stain DNA and a generic protein stain (CellMask, Invitrogen) to facilitate cell and nuclear image segmentation. Cells were imaged in PBS.
# Cells were imaged using the Cell Lab IC-100 Image Cytometer (IC-100; Beckman Coulter) platform that consists of 1) Nikon Eclipse TE2000-U Inverted Microscope (Nikon; Melville, NY); 2) Chroma 82000 triple band filter set (Chroma; Brattleboro, VT); 3) an imaging camera: Hamamatsu ORCA-ER Digital CCD camera (Hamamatsu; Bridgewater, NJ); and 4) a focusing camera: Photonics COHU Progressive scan camera (Photonics; Oxford, MA). […] In general, 49 to 64 images were captured per well for image analysis.
# While our initial AR studies using HTM were based upon CytoShop (Beckman-Coulter), [15], [33], these approaches were refined in the current work with the more robust server-client Pipeline Pilot image analysis platform (Basic and Advanced Imagine Collections, Pipeline Pilot 7.5, Accelrys, San Diego). Initially, the background signal was removed from all images using plate- and channel-specific correction images, generated by the sum projection of >600 randomly selected images for each channel from the image set. This allows for a pixel-by-pixel background subtraction that compensates any consistent uneven background artifacts in the image set. Furthermore, users are able to customize the degree of background subtraction by applying a multiplier to each correction image, useful for identification of objects such as nuclei or cell borders. After background subtraction, nuclear masks were generated using a combination of non-linear least squares and watershed-from-markers image manipulations of the DAPI images (Fig. 1B).
compound,measurement,setting,value
"C[C@@H]1CC2=CC(=O)CC[C@@H]2[C@H]2CC[C@@]3(C)[C@@H](CC[C@]3(C)O)[C@@H]21 [Mb, Mibolerone]",hyperspeckling,HeLa AR-R840C,8 fold increase
same,transcriptional activation,HeLa AR-R840C,11 fold
same,increase in nuclear translocation,"HeLa AR-R840C, vs untreated",29%
same,"Nuclear Translocation, Max","HeLa R840C, % signal present in the nucleus",63.7±1.1%
same,"Hyperspeckling, Max","HeLa R840C, absolute numerical measurement",269±20
same,"Transcriptional Activity, Max","HeLa R840C, pARR2PB-dsRED2skl reporter, absolute numerical measurement",35.3±1.4
